Assay results from patent publication US20220378923A1, “BET DEGRADER” (KYOWA KIRIN CO., LTD., priority 2019, published 2022).

Test system: DCAF16 KO SU-DHL-4 cells
Assay: Inhibitory effect on cell viability using SU-DHL-4 DCAF16 knock out (KO) cell line (Test Example 6)
Type: cell-based, human
Settings: for Activity Attenuation Ratio: (SU-DHL-4 DCAF16 KO IC50)/(SU-DHL-4 WT IC50); for IC50: DCAF16 KO SU-DHL-4 cells, 72 hours, Cell Counting Kit-8, 50% inhibition of cell viability
Method: The human DLBCL cell line SU-DHL-4 was purchased from DSMZ. SU-DHL-4 was passaged using RPMI1640 medium containing 10 vol % FBS. After the Cas9 gene was introduced, the cells were cultured in the above medium containing 0.01 mg/mL blasticidin (InvivoGen, Cat No. ant-bl-1). After introduction of sgRNA, the cells were cultured in the above medium containing 0.0001 mg/mL puromycin dihydrochloride (SIGMA, Cat No. P9020-10 ML). The culture conditions were 37° C. and 5% CO2.
Edit-R Lentiviral hEF1α-Blast-Cas9 Nuclease Particles (Cat No. VCAS10126) was used as a lentivirus for expressing Cas9 in human cell lines. Three types of Edit-R Human DCAF16 Lentiviral sgRNA (Cat No. VSGH10142-246568260; DNA target sequence […] (SEQ ID NO: 1), Cat No. VSGH10142-246568262; DNA target sequence […] (SEQ ID NO: 2) and Cat No. VSGH10142-246568263; DNA target sequence […] (SEQ ID NO: 3)) were used as lentiviruses for introducing DCAF16 sgRNA. As a control, Edit-R Lentiviral sgRNA Non-targeting Control #1 (Cat No. VSGC10215) was used. All lentiviruses were purchased from Dharmacon and stored at −80° C. until use.
SU-DHL-4 was suspended at 4×10^5 cells/mL in RPMI 1640 without FBS, 0.25 mL of the suspension was added to a 24-well plate, and the cells were cultured overnight. The next day, 0.003 mL of virus particles of Edit-R Lentiviral hEF1α-Blast-Cas9 Nuclease Particles was added. After culturing in a CO2 incubator for 4 hours, RPMI 1640 containing 0.75 mL of 10 vol % FBS was added. After culturing in a CO2 incubator for about 48 hours, the medium was replaced with RPMI1640 containing 10 vol % FBS, and the cells were cultured in a CO2 incubator. Four days after infection, the medium was replaced with a medium containing 0.01 mg/mL blasticidin (InvivoGen, Cat No. ant-bl-1). Then, the cells were passaged once every 2 to 3 days and thus twice in total (that is, cultured for 1 week) to obtain SU-DHL-4/Cas9, which is a Cas9-introduced SU-DHL-4 cell line.
(6) sgRNA infection SU-DHL-4/Cas9 was suspended at 4×10^5 cells/mL in RPMI 1640 without FBS, 0.25 mL of the suspension was added to a 24-well plate, and the cells were cultured overnight. The next day, a total of 4 types of sgRNA virus particles, 1 type of Control and 3 types targeting DCAF16 were added to the respective wells by 0.03 mL. After culturing in a CO2 incubator for 5 hours, RPMI 1640 containing 0.75 mL of 10 vol % FBS was added.
After culturing in a CO2 incubator for about 48 hours, the medium was replaced with RPMI1640 containing 10 vol % FBS, and the cells were cultured in a CO2 incubator. Four days after infection, the medium was replaced with a medium supplemented with 0.01 mg/mL puromycin dihydrochloride (SIGMA, Cat No. P9020-10 ML). Then, the cells were passaged once or twice a week for 2 weeks, and a cell stock was prepared using CELLBANKER I plus (Takara Bio, Cat No. CB-021). Cell line stock was stored at −80° C. Using Edit-R Lentiviral sgRNA Non-targeting Control #1, the Negative Control sequence was introduced into the SU-DHL-4 cell line, which was referred to as SU-DHL-4 NC strain, and using Edit-R Human DCAF16 Lentiviral sgRNA, […] sequence (SEQ ID NO: 1) was introduced into the SU-DHL-4 cell line, which was referred to as SU-DHL-4 DCAF16 KO1 strain, […] sequence (SEQ ID NO: 2) was introduced into the SU-DHL-4 cell line, which was referred to as SU-DHL-4 DCAF16 KO2 strain, and […] sequence (SEQ ID NO: 3) was introduced into the SU-DHL-4 cell line, which was referred to as SU-DHL-4 DCAF16 KO 3 strain.
The cultured DCAF16 KO SU-DHL-4 cells were seeded at 2000 cells/well in a transparent 384-well plate (Code No. 781182, Greiner bio-one). After seeding, the cells were pre-cultured at 37° C. in a carbon dioxide gas incubator for 18 to 25 hours. […]

| SMILES | IC50 (Homo sapiens) [nM] | IC50 [nM] | Activity Attenuation Ratio |
| --- | --- | --- | --- |
| CCC(=O)N1c2ccccc2[C@H](NCC23CCC(C(=O)N4CC(C(=O)Nc5ccc(N[C@@H]6C[C@H](C)N(C(=O)CC)c7ccccc76)cc5)C4)(CC2)CC3)C[C@@H]1C (relative stereo) [Compound 17o, 1-(4-((((2S,4R)-2-Methyl-1-propionyl-1,2,3,4-tetrahydroquinolin-4-yl)amino)methyl)bicyclo[2.2.2]octane-1-carbonyl)-N-(4-(((2S*,4R*)-2-methyl-1-propionyl-1,2,3,4-tetrahydroquinolin-4-yl)amino)phenyl)azetidine-3-carboxamide] | 522 |  | 670 |
| Cc1sc2c(c1C)C(c1ccc(C(=O)NCCCNC(=O)c3ccc(C4=N[C@@H](CC(=O)OC(C)(C)C)c5nnc(C)n5-c5sc(C)c(C)c54)cc3)cc1)=N[C@@H](CC(=O)OC(C)(C)C)c1nnc(C)n1-2 [Compound 1b, Di-tert-butyl 2,2′-[(6S,6′S)-({[propane-1,3-diylbis(azanediyl)]bis(carbonyl)}bis(4,1-phenylene))bis(2,3,9-trimethyl-6H-thieno[3,2-f][1,2,4]triazolo[4,3-a][1,4]diazepine-4,6-diyl)]diacetate] | 36.7 |  | 56 |
| CCC(=O)N1c2ccccc2[C@H](Nc2ccc(C(=O)NCC(=O)CNC(=O)c3ccc(N[C@@H]4C[C@H](C)N(C(=O)CC)c5ccccc54)cc3)cc2)C[C@@H]1C [Compound 1l, N,N′-(2-Oxopropane-1,3-diyl)bis(4-{[(2S,4R)-2-methyl-1-propionyl-1,2,3,4-tetrahydroquinolin-4-yl]amino}benzamide)] | 101 |  | 3357 |
| CCC(=O)N1c2ccccc2[C@H](Nc2ccc(C(=O)N3CCn4c(-c5ccc(N[C@@H]6C[C@H](C)N(C(=O)CC)c7ccccc76)cc5)cnc4C3)cc2)C[C@@H]1C [Compound 3e, 1-[(2S,4R)-2-Methyl-4-({4-[3-(4-{[(2S,4R)-2-methyl-1-propionyl-1,2,3,4-tetrahydroquinolin-4-yl]amino}phenyl)-5,6,7,8-tetrahydroimidazo[1,2-a]pyrazine-7-carbonyl]phenyl}amino)-3,4-dihydroquinolin-1(2H)-yl]propan-1-one] | 951 |  | 9515 |
| CCC(=O)N1c2ccccc2[C@H](Nc2ccc(C(=O)NCCNS(=O)(=O)c3ccc(N[C@@H]4C[C@H](C)N(C(=O)CC)c5ccccc54)cc3)cc2)C[C@@H]1C [Compound 4d, 4-{[(2S,4R)-2-Methyl-1-propionyl-1,2,3,4-tetrahydroquinolin-4-yl]amino}-N-{2-[(4-{[(2S,4R)-2-methyl-1-propionyl-1,2,3,4-tetrahydroquinolin-4-yl]amino}phenyl)sulfonamide]ethyl}benzamide] |  | 1530 | 365 |
| CCC(=O)N1c2ccccc2[C@H](Nc2ccc(CNCc3cn(-c4ccc(N[C@@H]5C[C@H](C)N(C(=O)CC)c6ccccc65)cc4)nn3)cc2)C[C@@H]1C [Compound 5h, 1-((2S,4R)-2-Methyl-4-((4-((((1-(4-(((2S,4R)-2-methyl-1-propionyl-1,2,3,4-tetrahydroquinolin-4-yl)amino)phenyl)-1H-1,2,3-triazol-4-yl)methyl)amino)methyl)phenyl)amino)-3,4-dihydroquinolin-1(2H)-yl)propan-1-one] | 58.4 |  | 942 |

Second part, led by results:

| IC50 (Homo sapiens) [nM] | IC50 [nM] | SMILES | Activity Attenuation Ratio |
| --- | --- | --- | --- |
| 7.42 |  | CCC(=O)N1c2ccccc2[C@H](Nc2ccc(C(=O)N3CC4CC3CN4C(=O)c3ccc(N[C@@H]4C[C@H](C)N(C(=O)CC)c5ccccc54)cc3)cc2)C[C@@H]1C [Compound 1k, 1,1′-{(2S,2'S,4R,4′R)-{[(2,5-Diazabicyclo[2.2.1]heptane-2,5-dicarbonyl)bis(4,1-phenylene)]bis(azanediyl)}bis[2-methyl-3,4-dihydroquinoline-4,1(2H)-diyl]}bis(propan-1-one)] | 34 |
| 6.58 |  | CCC(=O)N1c2ccccc2[C@H](Nc2ccc(C(=O)NCc3cn(-c4ccc(N[C@@H]5C[C@H](C)N(C(=O)CC)c6ccccc65)cc4)nn3)cc2)C[C@@H]1C [Compound 3a, 4-{[(2S,4R)-2-Methyl-1-propionyl-1,2,3,4-tetrahydroquinolin-4-yl]amino}-N-{[1-(4-{[(2S,4R)-2-methyl-1-propionyl-1,2,3,4-tetrahydroquinolin-4-yl]amino}phenyl)-1H-1,2,3-triazol-4-yl]methyl}benzamide] | 263 |
| 167 |  | CCC(=O)N1c2ccccc2[C@H](Nc2ccc(NC(=O)CNCC(=O)Nc3ccc(N[C@@H]4C[C@H](C)N(C(=O)CC)c5ccccc54)cc3)cc2)C[C@@H]1C [Compound 5d, 2,2′-Azanediylbis(N-(4-(((2S,4R)-2-methyl-1-propionyl-1,2,3,4-tetrahydroquinolin-4-yl)amino)phenyl)acetamide)] | 546 |
|  | 37.3 | CCC(=O)N1c2ccccc2[C@H](Nc2ccc(Cn3cc(C(=O)Nc4ccc(N[C@@H]5C[C@H](C)N(C(=O)CC)c6ccccc65)cc4)nn3)cc2)C[C@@H]1C [Compound 5j, 1-(4-(((2S,4R)-2-Methyl-1-propionyl-1,2,3,4-tetrahydroquinolin-4-yl)amino)benzyl)-N-(4-(((2S,4R)-2-methyl-1-propionyl-1,2,3,4-tetrahydroquinolin-4-yl)amino)phenyl)-1H-1,2,3-triazolee-4-carboxamide] | 941 |
| 622 |  | CCC(=O)N1c2ccccc2[C@H](Nc2ccc(Cc3cnc4n3CCN(C(=O)c3ccc(N[C@@H]5C[C@H](C)N(C(=O)CC)c6ccccc65)cc3)C4)cc2)C[C@@H]1C [Compound 5q, 1-((2S,4R)-2-Methyl-4-((4-((7-(4-(((2S,4R)-2-methyl-1-propionyl-1,2,3,4-tetrahydroquinolin-4-yl)amino)benzoyl)-5,6,7,8-tetrahydroimidazo[1,2-a]pyrazin-3-yl)methyl)phenyl)amino)-3,4-dihydroquinolin-1(2H)-yl)propan-1-one] | 7078 |
| 15.7 |  | CCC(=O)N1c2ccccc2[C@H](Nc2ccc(CCCC(=O)Nc3ccc(N[C@@H]4C[C@H](C)N(C(=O)CC)c5ccccc54)cc3)cc2)C[C@@H]1C [Compound 5r, N,4-Bis(4-(((2S,4R)-2-methyl-1-propionyl-1,2,3,4-tetrahydroquinolin-4-yl)amino)phenyl)butanamide] | 30 |
| 6.8 |  | CCC(=O)N1c2ccccc2C(Nc2ccc(NC(=O)C#CCNC(=O)c3ccc(N[C@@H]4C[C@H](C)N(C(=O)CC)c5ccccc54)cc3)cc2)CC1C (stereo partly drawn) [Compound 6h, 4-(((2S,4R)-2-Methyl-1-propionyl-1,2,3,4-tetrahydroquinolin-4-yl)amino)-N-(4-((4-((2-methyl-1-propionyl-1,2,3,4-tetrahydroquinolin-4-yl)amino)phenyl)amino)-4-oxobut-2-yn-1-yl)benzamide] | 2250 |
